According to patent publication US20050107343A1, “Pyrrolopyrimidines and related analogs as HSP90-inhibitors” (Conforma Therapeutics Corporation, priority 2003, published 2005):

Assays:
HER2/Neu protein = experiment: HER2 degradation assay; type: cell-based; conditions: Homo sapiens; 50% degradation of HER2/Neu protein, MCF7 cells, 16 h
Protocol: MCF7 breast carcinoma cells (ATCC) were grown in Dulbecco's modified Eagle's medium (DMEM) containing 10% fetal bovine serum (FBS) and 10 mM HEPES, and plated in 24 well plates (50% confluent). Twenty-four hrs later (cells are 65-70% confluent), test compounds were added and incubated overnight for 16 h. […] The wells were washed with 1 mL phosphate buffered saline (PBS), and 200 μL trypsin was added to each well. After trypsinization was complete, 50 μL of FBS was added to each well. Then 200 μL cells was transferred to 96 well plates. The cells were pipetted up and down to obtain a single cell suspension. The plates were centrifuged at 2,500 rpm for 1 min using a Sorvall Legend RT™ tabletop centrifuge (Kendro Laboratory Products, Asheville, N.C.). The cells were then washed once in PBS containing 0.2% BSA and 0.2% sodium azide (BA buffer). Phycoerythrin (PE) conjugated anti HER2/Neu antibody (Becton Dickinson, #340552), or PE conjugated anti-keyhole limpet hemocyanin [KLH] (Becton Dickinson, #340761) control antibody was added at a dilution of 1:20 and 1:40 respectively (final concentration was 1 μg/mL) and the cells were pipeted up and down to form a single cell suspension, and incubated for 15 mins. The cells were washed twice with 200 μL BA buffer, and resuspended in 200 μL BA buffer, and transferred to FACSCAN tubes with an additional 250 μL BA buffer. Samples were analyzed using a FACSCalibur™ flow cytometer (Becton Dickinson, San Jose, Calif.) equipped with Argon-ion laser that emits 15 mW of 488 nm light for excitation of the PE fluorochrome. 10,000 events were collected per sample. A fluorescence histogram was generated and the mean fluorescence intensity (MFI) of each sample was determined using Celiquest software. The background was defined as the MFI generated from cells incubated with control IgG-PE, and was subtracted from each sample stained with the HER2/Neu antibody. Cells incubated with DMSO were used as untreated controls since the compounds were resuspended in DMSO. Percent degradation of HER2 was calculated as follows: % HER2 degraded=[(MF1 untreated cells−MF1 treated cells)/MF1 untreated cell]×100
IC50 is defined as the concentration at which there was 50% degradation of the HER2/Neu protein.

[1] = tested on: rHSP90 in the MCF7 cell lysates; experiment: Cell lysate binding assay; conditions: 50% inhibition of biotin-GM binding to rHSP90 in MCF7 cell lysates
Protocol: Cell Lysate Binding Assay
MCF7 breast carcinoma cell lysates were prepared by douncing in lysing buffer (20 mM HEPES, pH 7.3, 1 mM EDTA, 5 mM MgCl2, 100 mM KCl), and then incubated with or without test compound for 30 mins at 4° C., followed by incubation with biotin-GM linked to BioMag™ streptavidin magnetic beads (Qiagen) for 1 hr at 4° C. The tubes were placed on a magnetic rack, and the unbound supernatant removed. The magnetic beads were washed three times in lysis buffer and boiled for 5 mins at 95° C. in SDS-PAGE sample buffer. Samples were analyzed on SDS protein gels, and Western blots were done for rHSP90. Bands in the Western Blots were quantitated using the Bio-rad Fluor-S MultiImager, and the % inhibition of binding of rHSP90 to the biotin-GM was calculated.
The IC50 reported is the concentration of test compound needed to achieve 50% inhibition of the biotin-GM binding to rHSP90 in the MCF7 cell lysates.

[2] = tested on: MCF7 breast carcinoma cells; experiment: MTS assay; type: cell-based; conditions: Homo sapiens, 50% reduction in viable cell number
Protocol: MTS assays measure the cytotoxicity of geldanamycin derivatives. MTS (3-(4,5-dimethylthiazol-2-yl)-5-(3-carboxymethoxyphenyl)-2-(4-sulfophenyl)-2H-tetrazolium) is a tetrazolium dye that is converted to a formazan product by dehydrogenase enzymes of metabolically active cells (Corey, A. et al. “Use of an aqueous soluble tetrazolium/formazan assay for cell growth assays in culture,” Cancer Commun. 1991, 3, 207-212). Cells were seeded in 96 well plates at 2000 cells/well and allowed to adhere overnight in Dulbecco's modified Eagle's medium supplemented with 10% fetal bovine serum. The final culture volume was 100 μl. Viable cell number was determined by using the Celltiter 96 AQueous Non-radioactive Cell Proliferation Assay (Promega, Madison Wis.). The MTS /PMS (phenazine methosulfate) solution was mixed at a ratio of 20:1, and 20 μL was added per well to 100 μl of culture medium. After 2-4 hours, the formation of the formazan product was measured at 490 nm absorbance using a multiwell plate spectrophotometer. Background was determined by measuring the Abs 490 nm of cell culture medium and MTS-PMS in the absence of cells and was subtracted from all values. Percent viable cells was calculated as follows: % viable cells=(Abs at 490 nm treated cells/Abs at 490 nm untreated cells)×100
The effect of selected compounds of the invention on MCF7 breast carcinoma cells according to the MTS assay is summarized in Table 2. IC50 was defined as the concentration of the compound which gave rise to 50% reduction in viable cell number.

SMILES	IC50 (HER2/Neu protein) [nM]	IC50 [1] [nM]	IC50 [2] [nM]
COc1c(C)cnc(CN2C(=O)Cc3c(Cl)nc(N)nc32)c1C	450		
COc1c(C)cnc(Cn2ccc3c(Cl)nc(N)nc32)c1C [Example 5, 4-Chloro-7-(4-methoxy-3,5-dimethyl-pyridin-2-ylmethyl)-7H-pyrrolo[2,3-d]pyrimidin-2-ylamine]	95	150	300
COc1c(C)c[n+]([O-])c(Cn2ccc3c(Cl)nc(N)nc32)c1C [Example 8, 4-Chloro-7-(4-methoxy-3,5-dimethyl-1-oxy-pyridin-2-ylmethyl)-7H-pyrrolo[2,3-d]pyrimidin-2-ylamine]	23		100
COc1c(C)c(Cl)nc(Cn2ccc3c(Cl)nc(N)nc32)c1C [Example 10, 4-Chloro-7-(6-chloro-4-methoxy-3,5-dimethyl-pyridin-2-ylmethyl)-7H-pyrrolo [2,3-d]pyrimidin-2-ylamine]	250		600
Cc1cnc(Cn2ccc3c(Cl)nc(N)nc32)c(C)c1Cl [Example 11, 4-Chloro-7-(4-chloro-3,5-dimethyl-pyridin-2-ylmethyl)-7H-pyrrolo[2,3-d]pyrimidin-2-ylamine]	80	90	200
Cc1cnc(Cn2ccc3c(Cl)nc(N)nc32)c(C)c1Br [Example 13, 7-(4-Bromo-3,5-dimethyl-pyridin-2-ylmethyl)-4-chloro-7H-pyrrolo[2,3-d]pyrimidin-2-ylamine]	50	90	1000
Cc1c[n+]([O-])c(Cn2ccc3c(Cl)nc(N)nc32)c(C)c1Cl [Example 14, 4-Chloro-7-(4-chloro-3,5-dimethyl-1-oxy-pyridin-2-ylmethyl)-7H-pyrrolo[2,3-d]pyrimidin-2-ylamine]	38	50	1000
Cc1c[n+]([O-])c(Cn2ccc3c(Cl)nc(N)nc32)c(C)c1Br [Example 15, 7-(4-Bromo-3,5-dimethyl-1-oxy-pyridin-2-ylmethyl)-4-chloro-7H-pyrrolo[2,3-d]pyrimidin-2-ylamine]	15	30	23
COc1c(C)c[n+]([O-])c(Cn2ccc3c(Br)nc(N)nc32)c1C [Example 20, 4-Bromo-7-(4-methoxy-3,5-dimethyl-1-oxy-pyridin-2-ylmethyl)-7H-pyrrolo[2,3-d]pyrimidin-2-ylamine]	42		1000
Cc1cnc(Cn2ccc3c(Br)nc(N)nc32)c(C)c1Cl [Example 21, 4-Bromo-7-(4-chloro-3,5-dimethyl-pyridin-2-ylmethyl)-7H-pyrrolo[2,3-d]pyrimidin-2-ylamine]	170		> 10000
Cc1c[n+]([O-])c(Cn2ccc3c(Br)nc(N)nc32)c(C)c1Cl [Example 22, 4-Bromo-7-(4-chloro-3,5-dimethyl-1-oxy-pyridin-2-ylmethyl)-7H-pyrrolo[2,3-d]pyrimidin-2-ylamine]	65		1000
Cc1cnc(Cn2ccc3c(Br)nc(N)nc32)c(C)c1Br [Example 23, 4-Bromo-7-(4-bromo-3,5-dimethyl-pyridin-2-ylmethyl)-7H-pyrrolo[2,3-d]pyrimidin-2-ylamine]	130		> 10000
Cc1c[n+]([O-])c(Cn2ccc3c(Br)nc(N)nc32)c(C)c1Br [Example 24, 4-Bromo-7-(4-bromo-3,5-dimethyl-1-oxy-pyridin-2-ylmethyl)-7H-pyrrolo[2,3-d]pyrimidin-2-ylamine]	25		300
COc1c(C)cnc(Cn2ccc3c(Br)nc(N)nc32)c1C [Example 25, 4-Bromo-7-(4-methoxy-3,5-dimethyl-pyridin-2-ylmethyl)-7H-pyrrolo[2,3-d]pyrimidin-2-ylamine]	150		> 10000
COc1c(C)cnc(Cn2cc(C(C)C)c3c(Cl)nc(N)nc32)c1C [Example 43, 4-Chloro-5-isopropyl-7-(4-methoxy-3,5-dimethyl-pyridin-2-ylmethyl)-7H-pyrrolo[2,3-d]pyrimidin-2-ylamine]	130		
Cc1c[n+]([O-])c(Cn2cc(C(C)C)c3c(Cl)nc(N)nc32)c(C)c1Cl [Example 45]	20		
Cc1cnc(CN2C(=O)Cc3c(Cl)nc(N)nc32)c(C)c1Cl [Example 48, 2-Amino-4-chloro-7-(4-chloro-3,5-dimethyl-pyridin-2-ylmethyl)-5,7-dihydro-pyrrolo[2,3-d]pyrimidin-6-one]	1500		
COc1c(C)c[n+]([O-])c(CN2C(=O)Cc3c(Cl)nc(N)nc32)c1C [Example 49, 2-Amino-4-chloro-7-(3,5-dimethyl-4-methoxy-1-oxy-pyridin-2-ylmethyl)-5,7-dihydro-pyrrolo[2,3-d]pyrimidin-6-one]	180		900
COc1cc(CN2C(=O)Cc3c(Cl)nc(N)nc32)c(Br)c(OC)c1OC [Example 52, 2-Amino-4-chloro-7-(2-bromo-3,4,5-trimethoxy-benzyl)-5,7-dihydro-pyrrolo[2,3-d]pyrimidin-6-one]	400		10000
